In patent publication US7138361B2, “Herbicidal heterocycles” (E. I. du Pont de Nemours and Company, priority 2000, dated 2006):

What was measured:
Type in all cases: in vivo
[1] = test system: pigweed (Amaranthus retroflexus); assay: Test B postemergence; details: 13 to 15 days
Outline: (§1)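 Preemergence: seeds planted and treated with test chemicals in non-phytotoxic solvent with surfactant; postemergence on plants 2–18 cm (1- to 4-leaf stage). Kept in greenhouse 13–15 days, then visually rated against controls on a 0 (no effect) to 100 (complete control) scale.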

[2] = test system: morning glory (Ipomoea hederacea); assay: Test B postemergence; details: 13 to 15 days
Outline: as §1

[3] = test system: corn (Zea mays); assay: Test B postemergence; details: 13 to 15 days
Outline: as §1

[4] = test system: blackgrass (Alopecurus myosuroides); assay: Test B postemergence; details: 13 to 15 days
Outline: as §1

[5] = test system: giant foxtail (Setaria faberii); assay: Test B postemergence; details: 13 to 15 days
Outline: as §1

[6] = test system: wheat (Triticum aestivum); assay: Test B postemergence; details: 13 to 15 days
Outline: as §1

[7] = test system: lambsquarters (Chenopodium album); assay: Test B postemergence; details: 13 to 15 days
Outline: as §1

[8] = test system: Surinam grass (Brachiaria decumbens); assay: Test B postemergence; details: 13 to 15 days
Outline: as §1

[9] = test system: crabgrass (Digitaria sanguinalis); assay: Test B postemergence; details: 13 to 15 days
Outline: as §1

[10] = test system: cocklebur (Xanthium strumarium); assay: Test B postemergence; details: 13 to 15 days
Outline: as §1

[11] = test system: wild oat (Avena fatua); assay: Test B postemergence; details: 13 to 15 days
Outline: as §1

[12] = test system: velvetleaf (Abutilon theophrasti); assay: Test B postemergence; details: 13 to 15 days
Outline: as §1

[13] = test system: barnyardgrass (Echinochloa crus-galli); assay: Test B postemergence; details: 13 to 15 days
Outline: as §1

[14] = test system: pigweed (Amaranthus retroflexus); assay: Test B preemergence; details: scale 0 to 100, 0 no effect, 100 complete control
Outline: as §1

[15] = test system: morning glory (Ipomoea hederacea); assay: Test B preemergence; details: Preemergence, Rate 500 g/ha; scale 0 to 100, 0 no effect, 100 complete control
Outline: as §1

[16] = test system: corn (Zea mays); assay: Test B preemergence; details: scale 0 to 100, 0 no effect, 100 complete control
Outline: as §1

[17] = test system: giant foxtail (Setaria faberii); assay: Test B preemergence; details: scale 0 to 100, 0 no effect, 100 complete control
Outline: as §1

[18] = test system: lambsquarters (Chenopodium album); assay: Test B preemergence; details: Preemergence, Rate 500 g/ha; scale 0 to 100, 0 no effect, 100 complete control
Outline: as §1

[19] = test system: Surinam grass (Brachiaria decumbens); assay: Test B preemergence; details: scale 0 to 100, 0 no effect, 100 complete control
Outline: as §1

[20] = test system: crabgrass (Digitaria sanguinalis); assay: Test B preemergence; details: scale 0 to 100, 0 no effect, 100 complete control
Outline: as §1

[21] = test system: cocklebur (Xanthium strumarium); assay: Test B preemergence; details: Preemergence, Rate 500 g/ha; scale 0 to 100, 0 no effect, 100 complete control
Outline: as §1

[22] = test system: velvetleaf (Abutilon theophrasti); assay: Test B preemergence; details: Preemergence, Rate 500 g/ha; scale 0 to 100, 0 no effect, 100 complete control
Outline: as §1

[23] = test system: barnyardgrass (Echinochloa crus-galli); assay: Test B preemergence; details: scale 0 to 100, 0 no effect, 100 complete control
Outline: as §1

[24] = test system: rice (Oryza saliva); assay: Test B preemergence; details: scale 0 to 100, 0 no effect, 100 complete control
Outline: as §1

[25] = test system: smallflower flatsedge (Cyperus difformis); assay: Test B flooded paddy test; details: Rate 1000 g/ha, scale of 0 to 100 where 0 is no effect and 100 is complete control, visually evaluated after 13 to 15 days
Outline: (§2)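 Rice, smallflower flatsedge, duck salad and barnyardgrass grown to 2-leaf stage in flooded paddy and treated with test chemicals. Plants kept in greenhouse 13 to 15 days, then visually rated against controls. Scale 0 (no effect) to 100 (complete control).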

[26] = test system: duck salad (Heteranthera limosa); assay: Test B flooded paddy test; details: Rate 1000 g/ha, scale of 0 to 100 where 0 is no effect and 100 is complete control, visually evaluated after 13 to 15 days
Outline: as §2

[27] = test system: barnyardgrass (Echinochloa crus-galli); assay: Test B flooded paddy test; details: Rate 1000 g/ha, scale of 0 to 100 where 0 is no effect and 100 is complete control, visually evaluated after 13 to 15 days
Outline: as §2

[28] = test system: rice (Oryza saliva); assay: Test B flooded paddy test; details: Rate 1000 g/ha, scale of 0 to 100 where 0 is no effect and 100 is complete control, visually evaluated after 13 to 15 days
Outline: as §2

[29] = test system: smallflower flatsedge (Cyperus difformis); assay: Test C flooded paddy test; details: for Flatsedge plant response rating: Flooded Paddy, scale 0 to 100, 0 no effect, 100 complete control; for Plant response rating, Flatsedge: flooded paddy test, scale 0 to 100 (0 no effect, 100 complete control)
Outline: (§3)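 Each species was cultivated to 2 leaves in flooded paddy pots, then treated. After a greenhouse period of 12–14 days, the plants were scored visually relative to controls from 0 (no effect) to 100 (complete control).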

[30] = test system: duck salad (Heteranthera limosa); assay: Test C flooded paddy test
Outline: as §3

[31] = test system: barnyardgrass (Echinochloa crus-galli); assay: Test C flooded paddy test
Outline: as §3

[32] = test system: rice (Oryza saliva); assay: Test C flooded paddy test
Outline: as §3

[33] = Rate 125 g/ha, scale 0 (no effect) to 100 (complete control)
[34] = Rate 500 g/ha, scale 0 to 100, 0 is no effect, 100 is complete control
[35] = Flooded Paddy, Rate 500 g/ha, scale 0 to 100
[36] = Flooded Paddy, Rate 250 g/ha, scale 0 to 100, 0 no effect, 100 complete control
[37] = flooded paddy test, Rate 62 g/ha, scale 0 to 100 (0 no effect, 100 complete control)
[38] = flooded paddy test, Rate 125 g/ha, scale 0 to 100 (0 no effect, 100 complete control)

Cc1cn(C2CCN(c3cccc(C(F)(F)F)c3)C2=O)nc1C(C)C (stereo not shown) [Compound 17]
20: Plant response rating, Flatsedge ([29]; Rate 62 g/ha)
80: Plant response rating, Lambsquarters [7, 33] | Plant response rating, Lambsquarters [7, 34] | Plant response rating, Barnyardgrass [27] | Flatsedge plant response rating ([29]; Rate 250 g/ha) | Flatsedge plant response rating ([29]; Rate 500 g/ha) | Plant response rating, Ducksalad [30, 35] | Ducksalad plant response rating [30, 36]
60: Plant response rating, Ducksalad [26]
70: Plant response rating, Flatsedge ([29]; Rate 125 g/ha) | Plant response rating, Ducksalad [30, 38] | Plant response rating, Barnyardgrass [31, 35]
90: Plant response rating, Flatsedge [25]
40: Plant response rating, Rice [28]
30: Plant response rating, Ducksalad [30, 37]
0: Plant response rating, Pigweed [1, 33] | Plant response rating, Pigweed [1, 34] | Plant response rating, Morningglory [2, 33] | Plant response rating, Morningglory [2, 34] | Plant response rating, Corn [3, 33] | Plant response rating, Corn [3, 34] | Plant response rating, Blackgrass [4, 33] | Plant response rating, Blackgrass [4, 34] | Plant response rating, Foxtail, Giant [5, 33] | Plant response rating, Foxtail, Giant [5, 34] | Plant response rating, Wheat [6, 33] | Plant response rating, Wheat [6, 34] | Plant response rating, Surinam grass [8, 33] | Plant response rating, Surinam grass [8, 34] | Plant response rating, Crabgrass [9, 33] | Plant response rating, Crabgrass [9, 34] | Plant response rating, Cocklebur [10, 33] | Plant response rating, Cocklebur [10, 34] | Plant response rating, Wild Oat [11, 33] | Plant response rating, Wild Oat [11, 34] | Plant response rating, Velvetleaf [12, 33] | Plant response rating, Velvetleaf [12, 34] | Plant response rating, Barnyardgrass [13, 33] | Plant response rating, Barnyardgrass [13, 34] | Plant response rating, Pigweed ([14]; Preemergence, Rate 500 g/ha) | Plant response rating, Pigweed ([14]; preemergence, Rate 125 g/ha) | Plant response rating, Morningglory [15] | Plant response rating, Corn ([16]; Preemergence, Rate 500 g/ha) | Plant response rating, Corn ([16]; preemergence, Rate 125 g/ha) | Plant response rating, Foxtail, Giant ([17]; Preemergence, Rate 500 g/ha) | Plant response rating, Foxtail, Giant ([17]; preemergence, Rate 125 g/ha) | Plant response rating, Lambsquarters [18] | Plant response rating, Surinam grass ([19]; Preemergence, Rate 500 g/ha) | Plant response rating, Surinam grass ([19]; preemergence, Rate 125 g/ha) | Plant response rating, Crabgrass ([20]; Preemergence, Rate 500 g/ha) | Plant response rating, Crabgrass ([20]; preemergence, Rate 125 g/ha) | Plant response rating, Cocklebur [21] | Plant response rating, Velvetleaf [22] | Plant response rating, Barnyardgrass ([23]; Preemergence, Rate 500 g/ha) | Plant response rating, Barnyardgrass ([23]; preemergence, Rate 125 g/ha) | Plant response rating, Rice ([24]; Preemergence, Rate 500 g/ha) | Plant response rating, Rice ([24]; preemergence, Rate 125 g/ha) | Barnyardgrass plant response rating [31, 36] | Plant response rating, Barnyardgrass [31, 37] | Plant response rating, Barnyardgrass [31, 38] | Plant response rating, Rice [32, 35] | Rice plant response rating [32, 36] | Plant response rating, Rice [32, 37] | Plant response rating, Rice [32, 38]
